Measured values from patent US10894808B2, “Polypeptide ligands specific for plasma kallikrein” (BicycleRD Limited, priority 2013, dated 2021).
Like-named read-outs stand apart in the source and are kept apart here. *1 amine or outer side, *2 acyl side, *3 side chain or, on linkers, in order; H or OH if unused. Where a SMILES comes first, the peptide text is derived from it. Bridges are numbered along the chain shown (N, C = ends). [ ]: non-standard residue; d: D form. TBMB = c1c(C[*:1])cc(C[*:3])cc1C[*:2]; hArg = N=C(N)NCCCC[C@H](N)C(=O)O; Aze = O=C(O)[C@@H]1CCN1; Sar = CNCC(=O)O

How the values were obtained:
[1] = target: T1, biotinylated human plasma kallikrein (Homo sapiens, UniProt P03952); test: Homogeneous plate-based screening assay of TBMB-cyclised phage clones (signal:background); assay type: binding
T1 construct: The human kallikrein is non-recombinant and therefore the heavy chain is present; purchased Innovative Research, Novi, Mich., USA IHPKA; host or cells: from human plasma
Description: Assay of binding of individual clones: Library transformant colonies were picked at random and grown as individual cultures in 2TY broth containing selective antibiotic. The picked colonies were DNA-sequenced using a QIAgen PyroMark Q96 DNA sequencer to reveal the amino-acid substitution present in each clone. Where isolated, a clone of each unique substitution was assayed for human plasma kallikrein binding as follows. The phage-containing supernatant was harvested from the culture and phage were cyclised with tris bromomethyl benzene (TBMB) based on the methods of Heinis et al (Nature Chemical Biology vol. 5 pp 502-507 (2009)). The purified phage from this process were assayed for binding to biotinylated human plasma kallikrein using a homogeneous plate-based binding assay; assay read-out measured on a BMG Labtech Pherastar FS plate reader. The quantitative binding data from triplicate assay samples was averaged (mean) and expressed as signal:background (where background was a sample assayed with no target material). The signal:background was expressed as a % of the parallel parent sample. Error bars denote standard deviation of the mean. Assays shown are representative of at least 2 independent experiments. The assay data was correlated with the peptide sequences. Substitutions marked in grey were not tested (a clone was not isolated from the random library sampling). A sample of a non-binding (arbitrary) bicycle was assayed in parallel to illustrate the assay baseline.
Assay of binding of individual clones: Library transformant colonies, or selection output colonies, were picked and grown as individual cultures in 2TY broth containing selective antibiotic. The picked colonies were DNA-sequenced using a QIAgen PyroMark Q96 DNA sequencer to reveal the amino-acid substitution present in each clone, and were assayed for human plasma kallikrein binding as follows. The phage-containing supernatant was harvested from the culture and phage were cyclised with tris-bromomethylbenzene (TBMB) based on the methods of Heinis et al (Nature Chemical Biology vol. 5 pp 502-507 (2009)). The purified phage from this process were assayed for binding to biotinylated human plasma kallikrein using a homogeneous plate-based binding assay; assay read-out measured on a BMG Labtech Pherastar FS plate reader. The quantitative binding data from duplicate assay samples was averaged (mean) and expressed as signal:background. Assay data shown is representative of at least 2 independent experiments. The assay data was correlated with the peptide sequences.

human plasma kallikrein = target: T2, human plasma kallikrein (Homo sapiens, UniProt P03952); test: Functional enzyme assay, inhibition of human plasma kallikrein (Z-PheArg-AMC substrate); assay type: biochemical
T2 construct: purchased Stratech, UK
Description: (§1) Functional enzyme assays were conducted in 10 mM Tris HCl, 150 mM NaCl, 10 mM MgCl2, 1 mM CaCl2 and 1 mg/mL BSA (all Sigma UK) pH 7.4 at 25° C. in solid black 96 or 384 well plates. […] Release of AMC was measured using a Pherastar FS (BMG Labtech), excitation 360 nm, emission 460 nm. The rate of the linear phase of the reaction, typically 5 to 45 minutes, was calculated in MARS data analysis software (BMG labtech). The rate was then used to calculate the IC50 and Ki in Prism (GraphPad). A four parameter inhibition non-linear regression equation was used to calculate the IC50. […]
(§2) Peptides were dissolved as the TFA-salts in their powder form, and stock solutions were usually prepared in water. All solutions were centrifuged and filtered ([…] syringe filters) prior to absorption measurement at 280 nm. Extinction coefficients were calculated based on the Trp/Tyr content of the peptide, and that of TMB (the TMB core, when contained in a peptide, has an extinction coefficient of ˜300 M^−1 cm^−1).

rat plasma kallikrein = target: T3, rat plasma kallikrein (Rattus norvegicus, UniProt P14272); test: Functional enzyme assay, inhibition of rat plasma kallikrein (Z-PheArg-AMC substrate); assay type: biochemical; conditions: Table 1, synthetic peptides; read-out: Rat (Ki)
T3 construct: polyhistidine tag followed by proTEV cleavage site (pro-peptide) (N, cleaved yes); made in house; host or cells: HEK-293 (suspension-adapted), pEXPR-IBA42 vector
Description: as §1, §2

rabbit kallikrein = rabbit kallikrein (Oryctolagus cuniculus, UniProt G1T127); test: Functional enzyme assay, inhibition of rabbit kallikrein; assay type: biochemical
Description: as §1, §2

[2] = Table 3, 06-254 affinity-matured library
[3] = Table 1, synthetic peptides, read-out: Human (Ki)

T1 sequence (P03952 391-638 limits assumed): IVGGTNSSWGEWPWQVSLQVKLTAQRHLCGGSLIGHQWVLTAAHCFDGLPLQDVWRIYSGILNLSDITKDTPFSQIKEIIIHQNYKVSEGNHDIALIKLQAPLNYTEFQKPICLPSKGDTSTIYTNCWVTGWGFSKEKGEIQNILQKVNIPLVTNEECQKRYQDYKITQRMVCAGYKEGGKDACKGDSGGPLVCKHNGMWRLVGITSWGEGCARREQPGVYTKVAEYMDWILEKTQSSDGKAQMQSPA
T1 sequence (P03952 20-390 partner limits assumed): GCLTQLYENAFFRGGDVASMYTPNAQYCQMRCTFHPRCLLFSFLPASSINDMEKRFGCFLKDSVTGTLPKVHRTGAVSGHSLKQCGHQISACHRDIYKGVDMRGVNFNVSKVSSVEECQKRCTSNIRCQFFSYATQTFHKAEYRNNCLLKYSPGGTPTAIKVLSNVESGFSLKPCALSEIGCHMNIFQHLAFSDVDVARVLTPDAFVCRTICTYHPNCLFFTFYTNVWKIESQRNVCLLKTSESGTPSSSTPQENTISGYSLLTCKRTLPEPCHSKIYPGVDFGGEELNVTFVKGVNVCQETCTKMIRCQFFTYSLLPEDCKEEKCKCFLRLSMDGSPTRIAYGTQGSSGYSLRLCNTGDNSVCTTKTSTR
T2 sequence (P03952 391-638 limits assumed): as the sequence (P03952 391-638 limits assumed) above
T2 sequence (P03952 20-390 partner limits assumed): as the sequence (P03952 20-390 partner limits assumed) above
Chain of rabbit kallikrein (G1T127 20-629): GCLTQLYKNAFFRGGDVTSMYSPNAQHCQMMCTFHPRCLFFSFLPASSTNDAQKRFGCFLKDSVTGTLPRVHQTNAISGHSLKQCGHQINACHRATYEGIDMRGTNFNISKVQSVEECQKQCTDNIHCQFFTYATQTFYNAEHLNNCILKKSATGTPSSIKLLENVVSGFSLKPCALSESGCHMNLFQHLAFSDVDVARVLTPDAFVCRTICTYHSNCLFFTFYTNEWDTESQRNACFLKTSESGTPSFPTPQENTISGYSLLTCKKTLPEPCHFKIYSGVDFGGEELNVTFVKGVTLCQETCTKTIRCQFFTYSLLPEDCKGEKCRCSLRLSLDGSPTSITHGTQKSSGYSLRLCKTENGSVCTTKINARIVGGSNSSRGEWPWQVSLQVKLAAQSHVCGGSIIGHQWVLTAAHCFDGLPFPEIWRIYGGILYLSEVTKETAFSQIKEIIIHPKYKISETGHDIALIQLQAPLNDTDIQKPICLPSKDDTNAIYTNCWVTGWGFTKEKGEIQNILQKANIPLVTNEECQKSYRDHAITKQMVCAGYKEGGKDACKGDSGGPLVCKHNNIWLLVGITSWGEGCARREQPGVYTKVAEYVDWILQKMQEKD
T3 sequence (P14272 391-638 limits assumed): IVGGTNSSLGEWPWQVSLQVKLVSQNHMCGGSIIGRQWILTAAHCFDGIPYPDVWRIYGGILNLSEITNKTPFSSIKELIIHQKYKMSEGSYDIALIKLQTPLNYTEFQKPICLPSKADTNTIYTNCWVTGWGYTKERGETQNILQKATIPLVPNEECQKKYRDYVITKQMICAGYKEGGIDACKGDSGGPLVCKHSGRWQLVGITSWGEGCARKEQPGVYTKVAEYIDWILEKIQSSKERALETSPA

Q: How did the “S:B (Signal:Background)” value [1, 2] turn out when CC[C@H](C)[C@@H]1NC(=O)[C@H](CC(C)C)NC(=O)[C@H](CC(=O)O)NC(=O)[C@@H]2CSCc3cc(cc(c3)CSC[C@@H](C(=O)N[C@@H](C)C(N)=O)NC(=O)[C@H]([C@@H](C)O)NC(=O)[C@H]([C@@H](C)O)NC(=O)[C@H](CCC(=O)O)NC1=O)CSC[C@H](NC(=O)[C@H](C)N)C(=O)N[C@@H](CCCCN)C(=O)N[C@@H](CC(N)=O)C(=O)N[C@@H](Cc1ccc(O)cc1)C(=O)N[C@@H](Cc1c[nH]c3ccccc13)C(=O)N[C@@H](CC(N)=O)C(=O)N1CCC[C@H]1C(=O)N2 [06-254-01] (H-ACKNYWNPCDLIETTCA-NH2; linker 2-9-16 via TBMB; N-terminus and C-terminus assumed) was run?
A: 61.90

Q: How did the Ki (human plasma kallikrein; Table 5, read-out: Human (Ki)) turn out when CSCC[C@@H]1NC(=O)[C@H](C(C)C)NC(=O)[C@H](CC(C)C)NC(=O)[C@H](CC(=O)O)NC(=O)[C@@H]2CSCc3cc(cc(c3)CSC[C@@H](C(=O)N[C@@H](C)C(N)=O)NC(=O)[C@H]([C@@H](C)O)NC(=O)[C@H](CC(=O)O)NC1=O)CSC[C@H](NC(=O)[C@H](C)N)C(=O)N[C@@H](CCCCN)C(=O)N[C@@H](CC(N)=O)C(=O)N[C@@H](Cc1ccc(O)cc1)C(=O)N[C@@H](Cc1c[nH]c3ccccc13)C(=O)N[C@@H](CC(N)=O)C(=O)N1CCC[C@H]1C(=O)N2 [06-254-03] (H-ACKNYWNPCDLVMDTCA-NH2; linker 2-9-16 via TBMB; N-terminus and C-terminus assumed) was run?
A: 1.4 nM

Q: What about the “S:B (Signal:Background)” value [1, 2] of the same molecule?
A: 56.70

Q: Which Ki (human plasma kallikrein) does the source give for CC[C@H](C)[C@@H]1NC(=O)[C@H](CC(=O)O)NC(=O)[C@@H]2CCCN2C(=O)[C@H](Cc2ccc(O)cc2)NC(=O)[C@H](Cc2ccc(O)cc2)NC(=O)[C@H](C(C)C)NC(=O)[C@@H]2CSCc3cc(cc(c3)CSC[C@H](NC(C)=O)C(=O)N[C@@H](CO)C(=O)N[C@@H](Cc3ccccc3)C(=O)N3CC[C@H]3C(=O)N[C@@H](Cc3ccc(O)cc3)C(=O)N[C@@H](CCCCNC(=N)N)C(=O)N2)CSC[C@@H](C(N)=O)NC1=O [Ac-(06-550) Aze3 HArg5] (Ac-CSF[Aze]Y[hArg]CVYYPDIC-NH2; linker 1-7-14 via TBMB) here?
A: 0.5 nM

Q: Which Ki (human plasma kallikrein; [3]) does the source give for CC[C@H](C)[C@@H]1NC(=O)[C@H](CC(=O)O)NC(=O)[C@@H]2CCCN2C(=O)[C@H](Cc2ccc(O)cc2)NC(=O)[C@H](Cc2ccc(O)cc2)NC(=O)[C@H](C(C)C)NC(=O)[C@@H]2CSCc3cc(cc(c3)CSC[C@@H](C(=O)N[C@@H](C)C(N)=O)NC1=O)CSC[C@H](NC(=O)[C@H](C)N)C(=O)N[C@@H](CC(N)=O)C(=O)N[C@@H](CC(N)=O)C(=O)N[C@@H](Cc1ccccc1)C(=O)N1CCC[C@H]1C(=O)N[C@@H](Cc1ccccc1)C(=O)N[C@@H](CCCNC(=N)N)C(=O)N2 [06-261] (H-ACNNFPFRCVYYPDICA-NH2; linker 2-9-16 via TBMB; N-terminus assumed) here?
A: 0.4 nM

Q: And the Ki (rat plasma kallikrein)?
A: 4 nM

Q: And the Ki (rabbit kallikrein; Table 1, synthetic peptides, read-out: Rabbit (Ki))?
A: 1040 nM

Q: What about the Ki (rabbit kallikrein; Table 5, read-out: Rabbit (Ki)) of the same molecule?
A: 1040 nM

Q: With CC(C)[C@@H]1NC(=O)[C@H](CO)NC(=O)[C@@H]2CSCc3cc(cc(c3)CSC[C@@H](C(=O)N[C@@H](C)C(N)=O)NC(=O)[C@H](C(C)C)NC(=O)[C@@H]3CCCN3C(=O)[C@@H]3CCCN3C(=O)[C@H](CCC(=O)O)NC1=O)CSC[C@H](NC(=O)[C@H](C)N)C(=O)N[C@@H](CC(N)=O)C(=O)N[C@@H](Cc1c[nH]cn1)C(=O)N[C@@H](Cc1c[nH]c3ccccc13)C(=O)N[C@@H](CC(N)=O)C(=O)N1CCC[C@H]1C(=O)N[C@@H](Cc1c[nH]c3ccccc13)C(=O)N2 [06-259-01] (H-ACNHWNPWCSVEPPVCA-NH2; linker 2-9-16 via TBMB; N-terminus assumed) as the molecule, how does the “S:B (Signal:Background)” value ([1]; Table 4, 06-259 affinity-matured library) read?
A: 51.67

Q: CC[C@H](C)[C@@H]1NC(=O)[C@H](CC(C)C)NC(=O)[C@H](CC(=O)O)NC(=O)[C@@H]2CSCc3cc(cc(c3)CSC[C@@H](C(=O)N[C@@H](C)C(N)=O)NC(=O)[C@@H]3CCCN3C(=O)CNC(=O)[C@@H]3CCCN3C1=O)CSC[C@H](NC(=O)[C@H](C)N)C(=O)N[C@@H](CCCCN)C(=O)N[C@@H](CC(N)=O)C(=O)N[C@@H](Cc1ccc(O)cc1)C(=O)N[C@@H](Cc1c[nH]c3ccccc13)C(=O)N[C@@H](CC(N)=O)C(=O)N1CCC[C@H]1C(=O)N2 [06-254-02] (H-ACKNYWNPCDLIPGPCA-NH2; linker 2-9-16 via TBMB; N-terminus assumed) was tested. Which Ki (human plasma kallikrein; Table 5, read-out: Human (Ki)) did it give?
A: 0.5 nM

Q: And the “S:B (Signal:Background)” value [1, 2]?
A: 46.65

Q: How did the Ki (human plasma kallikrein) turn out when CC[C@H](C)[C@@H]1NC(=O)[C@H](CC(C)C)NC(=O)[C@H]([C@@H](C)O)NC(=O)[C@@H]2CSCc3cc(cc(c3)CSC[C@@H](C(=O)N[C@@H](C)C(=O)N(C)CC(=O)N(C)CC(=O)N(C)CC(=O)N[C@H](CCCNC(=N)N)C(=O)N[C@H](CCCNC(=N)N)C(N)=O)NC(=O)[C@H]([C@@H](C)O)NC(=O)[C@H]([C@@H](C)CC)NC(=O)[C@H](CC(N)=O)NC1=O)CSC[C@H](NC(C)=O)C(=O)N[C@@H](CCCNC(=N)N)C(=O)N[C@@H](CC(N)=O)C(=O)N[C@@H](Cc1ccc(O)cc1)C(=O)N[C@@H](Cc1c[nH]c3ccccc13)C(=O)N[C@@H](CC(N)=O)C(=O)N1CCC[C@H]1C(=O)N2 [Ac-(06-255)-Sar3-(DArg2)] (Ac-CRNYWNPCTLINITCA[Sar][Sar][Sar][dR][dR]-NH2; linker 1-8-15 via TBMB) was run?
A: 1.2 nM

Q: How did the Ki (human plasma kallikrein; Table 5, read-out: Human (Ki)) turn out when CC(C)C[C@@H]1NC(=O)[C@@H]2CCCN2C(=O)[C@H](C)NC(=O)[C@H](CC(=O)O)NC(=O)[C@H](Cc2c[nH]c3ccccc23)NC(=O)[C@@H]2CCCN2C(=O)[C@@H]2CSCc3cc(cc(c3)CSC[C@@H](C(=O)N[C@@H](C)C(N)=O)NC1=O)CSC[C@H](NC(=O)[C@H](C)N)C(=O)N[C@@H](CC(N)=O)C(=O)N[C@@H](Cc1ccc(O)cc1)C(=O)N[C@@H](Cc1c[nH]c3ccccc13)C(=O)N[C@@H](CC(N)=O)C(=O)N1CCC[C@H]1C(=O)N[C@@H](Cc1c[nH]c3ccccc13)C(=O)N2 [06-259-04] (H-ACNYWNPWCPWDAPLCA-NH2; linker 2-9-16 via TBMB; N-terminus assumed) was run?
A: 3.4 nM

Q: For CC[C@H](C)[C@@H]1NC(=O)[C@H](CC(C)C)NC(=O)[C@H]([C@@H](C)O)NC(=O)[C@@H]2CSCc3cc(cc(c3)CSC[C@H](NC(C)=O)C(=O)N[C@@H](CCCNC(=N)N)C(=O)N[C@@H](CC(N)=O)C(=O)N[C@@H](Cc3ccc(O)cc3)C(=O)N[C@@H](Cc3c[nH]c4ccccc34)C(=O)N[C@@H](CC(N)=O)C(=O)N3CCC[C@H]3C(=O)N2)CSC[C@@H](C(N)=O)NC(=O)[C@H]([C@@H](C)O)NC(=O)[C@H]([C@@H](C)CC)NC(=O)[C@H](CC(N)=O)NC1=O [Ac-(06-255)] (Ac-CRNYWNPCTLINITC-NH2; linker 1-8-15 via TBMB; C-terminus assumed), which Ki (rabbit kallikrein) is on record?
A: 342 nM

Q: For CSCC[C@@H]1NC(=O)[C@H](CCCNC(=N)N)NC(=O)[C@H](CCCNC(=N)N)NC(=O)[C@H](Cc2ccc(O)cc2)NC(=O)[C@@H]2CSCc3cc(cc(c3)CSC[C@H](NC(=O)[C@H](C)N)C(=O)N3CCC[C@H]3C(=O)N[C@@H](CC(C)C)C(=O)N[C@@H](CO)C(=O)N[C@@H](CC(=O)O)C(=O)N[C@@H]([C@@H](C)O)C(=O)N[C@@H](CC(C)C)C(=O)N2)CSC[C@@H](C(=O)N[C@@H](C)C(N)=O)NC(=O)[C@@H]2CCCN2C(=O)[C@@H]2CCCN2C1=O [06-257] (H-ACPLSDTLCYRRMPPCA-NH2; linker 2-9-16 via TBMB; N-terminus assumed), which Ki (human plasma kallikrein; [3]) is on record?
A: 36.1 nM

Q: And the Ki (rat plasma kallikrein)?
A: 159 nM
